Assay results reported in patent publication US4729995A, “Pyrimidine 2,4-dioxamate compounds and pharmaceutical compositions” (Toyo Boseki Kabushiki Kaisha, priority 1986, dated 1988).
Read-outs that look alike come from different tables or passages of the source.

Legend:
SRS-A release = test: Inhibition of SRS-A release from passively sensitized guinea pig lung suspension, bioassay on isolated guinea pig ileum (Experiment 1); type: cell-based, Hartley guinea pig; conditions: Cavia porcellus, 37° C, read-out: Release inhibitory rate, SRS-A
Protocol: (§1) Hartley guinea pig (male, weighing about 400 g) was passively sensitized by an intravenous injection of anti-egg albumin guinea pig serum. 48 hours after the sensitization, the lung was taken out and cut finely to prepare a lung suspension. To the suspension were added a test compound and egg albumin, and the mixture was incubated at 37° C. After the reaction, the mixture was centrifuged, and then the amount of histamine and SRS-A in the supernatant was measured. The amount of histamine was measured by a fluorometry in accordance with the method of May et al [cf. J. Allerg., Vol. 40, page 12 (1970)]. The amount of SRS-A was measured by a bioassay using an isolated guinea pig ileum. That is, the guinea pig ileum was suspended within Magnus vessel, and thereto were added an antihistaminic, an antiacetylcholine agent and a test solution, and based on the shrink of guinea pig ileum, the amount of SRS-A was calculated.

Histamine release = test: Inhibition of histamine release from passively sensitized guinea pig lung suspension (Experiment 1); type: cell-based, Hartley guinea pig; conditions: Cavia porcellus, 37° C, fluorometry, read-out: Release inhibitory rate, Histamine
Protocol: as §1

[1] = test system: PCA (passive cutaneous anaphylaxis); test: Passive cutaneous anaphylaxis (PCA) inhibition in rats (Experiment 2); type: in vivo, Wistar rats; conditions: Rattus norvegicus, read-out: PCA inhibitory rate; for inhibition in vivo at 3 mg/kg: 3 mg/kg intravenous, 5 minutes before antigen challenge, six rats (Table 5); for inhibition in vivo at 200 mg/kg: 200 mg/kg oral, one hour before induction of PCA, six rats (Table 2); for inhibition in vivo at 30 mg/kg: 30 mg/kg oral
Protocol: Wistar rats (male, weighing about 200 g) were passively sensitized by an intradermal injection of each 0.1 ml of anti-egg albumin rat serum both sides of median line on back of the animals (each two points, totally 4 points). After 48 hours, a mixture (1 ml) of egg albumin and Evans blue was injected via tail vein, by which PCA (passive cutaneous anaphylaxis) was induced. After 30 minutes, the blue colored region was cut out and the amount of color was measured by the method of Katayama et al [cf. Microbiol. Immunol., Vol. 22, page 89 (1978)]. One hour before the induction of PCA, each test compound was orally administered to six rats at a dose of 200 mg/kg per each rat.
In the above experiments, the test compound was orally administered to six rats at a dose of 30 mg/kg per each rat one hour before the antigen challenge.
In the above experiments, the test compound was orally administered to six rats at a dose of 30 mg/kg per each rat 30 minutes before the antigen challenge.
In the above experiments, the test compound was intravenously administered to six rats at a dose of 3 mg/kg per each rat 5 minutes before the antigen challenge.

[2] = 30 minutes before antigen challenge, six rats (Table 4)
[3] = 1 h, one hour before antigen challenge, six rats (Table 3)

Compound | inhibition at 100 µM (SRS-A release) [%] | inhibition at 100 µM (Histamine release) [%] | inhibition in vivo at 3 mg/kg [1] [%] | inhibition in vivo at 200 mg/kg ([1]; 1 h) [%] | inhibition in vivo at 30 mg/kg [1, 2] [%] | inhibition in vivo at 30 mg/kg [1, 3] [%]
O=C(O)C(=O)Nc1cc(N2CCOCC2)nc(NC(=O)C(=O)O)n1 [6-morpholinopyrimidine-2,4-dioxamic acid hydrate] | 47.3 | 21.2 | 100 | – | – | –
O=C(O)C(=O)Nc1cc(N2CCCCC2)nc(NC(=O)C(=O)O)n1 [6-piperidinopyrimidine-2,4-dioxamic acid hydrate] | 43.2 | 20.5 | 100 | – | – | –
CCCOC(=O)C(=O)Nc1cc(N2CCOCC2)nc(NC(=O)C(=O)OCCC)n1 [di-n-propyl 6-morpholinopyrimidine-2,4-dioxamate] | 50 | 29.8 | – | – | – | –
CCCOC(=O)C(=O)Nc1cc(N2CCCCC2)nc(NC(=O)C(=O)OCCC)n1 [di-n-propyl 6-piperidinopyrimidine-2,4-dioxamate] | 52.3 | 31.6 | – | – | – | –
O=C(Nc1cc(N2CCOCC2)nc(NC(=O)C(=O)OCc2ccccc2)n1)C(=O)OCc1ccccc1 [dibenzyl 6-morpholinopyrimidine-2,4-dioxamate] | 52.6 | 31.1 | – | – | – | –
O=C(Nc1cc(N2CCCCC2)nc(NC(=O)C(=O)OCc2ccccc2)n1)C(=O)OCc1ccccc1 [dibenzyl 6-piperidinopyrimidine-2,4-dioxamate semihydrate] | 48.6 | 26.5 | – | – | – | –
CCOC(=O)C(=O)Nc1cc(Cl)nc(NC(=O)C(=O)OCC)n1 [diethyl 4-chloropyrimidine-2,6-dioxamate monohydrate] | 52.7 | 24.5 | – | 41.7 | – | –
CCOC(=O)C(=O)Nc1cc(N2CCN(C)CC2)nc(NC(=O)C(=O)OCC)n1 [diethyl 6-(4-methylpiperazino)pyrimidine-2,4-dioxamate] | 33.3 | 23.7 | – | – | – | –
CCOC(=O)C(=O)Nc1cc(OC)nc(NC(=O)C(=O)OCC)n1 [diethyl 6-methoxypyrimidine-2,4-dioxamate monohydrate] | 57.6 | 44.2 | – | 83.4 | – | –
CCOC(=O)C(=O)Nc1cc(N2CCOCC2)nc(NC(=O)C(=O)OCC)n1 [diethyl 6-morpholinopyrimidine-2,4-dioxamate] | 52.6 | 36.2 | – | 96.6 | 91.7 | –
CCOC(=O)C(=O)Nc1cc(N2CCCCC2)nc(NC(=O)C(=O)OCC)n1 [diethyl 6-piperidinopyrimidine-2,4-dioxamate] | 46.6 | 12.2 | 100 | 92.4 | 90.6 | –
CCOC(=O)C(=O)Nc1cc(N2CCCC2)nc(NC(=O)C(=O)OCC)n1 [diethyl 6-pyrrolidinopyrimidine-2,4-dioxamate] | 32.8 | 16.1 | – | 87.3 | 73.1 | –
CC(C)OC(=O)C(=O)Nc1cc(N2CCOCC2)nc(NC(=O)C(=O)OC(C)C)n1 [diisopropyl 6-morpholinopyrimidine-2,4-dioxamate] | 59.9 | 30.8 | 100 | – | – | –
COC(=O)C(=O)Nc1cc(N2CCCCCC2)nc(NC(=O)C(=O)OC)n1 [dimethyl 6-homopiperidinopyrimidine-2,4-dioxamate] | 49.2 | 26.3 | – | – | – | 76.9
COC(=O)C(=O)Nc1cc(N2CCOCC2)nc(NC(=O)C(=O)OC)n1 [dimethyl 6-morpholinopyrimidine-2,4-dioxamate] | 47.3 | 27.7 | 100 | – | – | 98.5
COC(=O)C(=O)Nc1cc(N2CCCCC2)nc(NC(=O)C(=O)OC)n1 [dimethyl 6-piperidinopyrimidine-2,4-dioxamate] | 50 | 32.1 | – | 85.6 | 54.4 | –
COC(=O)C(=O)Nc1cc(N2CCCC2)nc(NC(=O)C(=O)OC)n1 [dimethyl 6-pyrrolidinopyrimidine-2,4-dioxamate] | 40.2 | 19.9 | – | – | – | 81.2
